Results as given in PubChem BioAssay AID2060618 (Molecular Pharmacology Branch, DTP, NCI, 2025).

Test system: 454973-116-R2-J3-PDC spheroids, percent test/control viability
Assay: Anticancer human tumor 454973-116-R2-J3-PDC patient-derived pancreatic carcinoma cell line growth inhibition [CLK]
Conditions: spheroids with HUVEC and MSC; for IC50: curve of first compound; for viability, T/C: stronger effect = lower value
Outline: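 Multi-cell-type spheroids combined patient-derived tumor cells with HUVEC endothelial cells and human mesenchymal stem cells. Paired agents were dosed in half-log steps down from about clinical Cmax, or from 10 microM where Cmax was unknown.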

[1] = second compound 0.0316 µM, first compound 0.0316 µM
[2] = second compound 0.0316 µM, first compound 0.1 µM
[3] = second compound 0.0316 µM, first compound 0.316 µM
[4] = second compound 0.0316 µM, first compound 1 µM
[5] = second compound 0.0316 µM, first compound 3.16 µM
[6] = second compound 0.0316 µM, first compound 10 µM
[7] = second compound 0.1 µM, first compound 0.0316 µM
[8] = second compound 0.1 µM, first compound 0.1 µM
[9] = second compound 0.1 µM, first compound 0.316 µM
[10] = second compound 0.1 µM, first compound 1 µM
[11] = second compound 0.1 µM, first compound 3.16 µM
[12] = second compound 0.1 µM, first compound 10 µM
[13] = second compound 0.316 µM, first compound 0.0316 µM
[14] = second compound 0.316 µM, first compound 0.1 µM
[15] = second compound 0.316 µM, first compound 0.316 µM
[16] = second compound 0.316 µM, first compound 1 µM
[17] = second compound 0.316 µM, first compound 3.16 µM
[18] = second compound 0.316 µM, first compound 10 µM
[19] = second compound 1 µM, first compound 0.0316 µM
[20] = second compound 1 µM, first compound 0.1 µM
[21] = second compound 1 µM, first compound 0.316 µM
[22] = second compound 1 µM, first compound 1 µM
[23] = second compound 1 µM, first compound 3.16 µM
[24] = second compound 1 µM, first compound 10 µM
[25] = second compound 3.16 µM, first compound 0.0316 µM
[26] = second compound 3.16 µM, first compound 0.1 µM
[27] = second compound 3.16 µM, first compound 0.316 µM
[28] = second compound 3.16 µM, first compound 1 µM
[29] = second compound 3.16 µM, first compound 3.16 µM
[30] = second compound 3.16 µM, first compound 10 µM
[31] = second compound 10 µM, first compound 0.0316 µM
[32] = second compound 10 µM, first compound 0.1 µM
[33] = second compound 10 µM, first compound 0.316 µM
[34] = second compound 10 µM, first compound 1 µM
[35] = second compound 10 µM, first compound 3.16 µM
[36] = second compound 10 µM, first compound 10 µM
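Further: spheroids exposed to compounds for 7 days before readout.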

C#Cc1c(F)ccc2cc(O)cc(-c3ncc4c(N5CC6CCC(C5)N6)nc(OCC56CCCN5CC(F)C6)nc4c3F)c12 (stereo unspecified) + CN1CCN(c2cc(C(=O)Nc3cc4cc(-c5cnn(C)c5)ccc4cn3)ccn2)CC1
IC50 (second compound 0.0316 µM): 34.7 nM
IC50 (second compound 0.1 µM): < 31.6 nM
IC50 (second compound 0.316 µM): < 31.6 nM
IC50 (second compound 1 µM): < 31.6 nM
IC50 (second compound 3.16 µM): < 31.6 nM
IC50 (second compound 10 µM): < 31.6 nM
viability, T/C [1]: 51%
viability, T/C [2]: 40.5%
viability, T/C [3]: 29.7%
viability, T/C [4]: 30.5%
viability, T/C [5]: 26.4%
viability, T/C [6]: 21.7%
viability, T/C [7]: 42%
viability, T/C [8]: 35.6%
viability, T/C [9]: 29.6%
viability, T/C [10]: 21.9%
viability, T/C [11]: 22.5%
viability, T/C [12]: 16.6%
viability, T/C [13]: 2.95%
viability, T/C [14]: 4.54%
viability, T/C [15]: 2.86%
viability, T/C [16]: 2.52%
viability, T/C [17]: 2.6%
viability, T/C [18]: 2.24%
viability, T/C [19]: 0.11%
viability, T/C [20]: 0.13%
viability, T/C [21]: 0.46%
viability, T/C [22]: 0.08%
viability, T/C [23]: 0.12%
viability, T/C [24]: 0.4%
viability, T/C [25]: 0.06%
viability, T/C [26]: 0.9%
viability, T/C [27]: 0.56%
viability, T/C [28]: 0.07%
viability, T/C [29]: 0.09%
viability, T/C [30]: 1.64%
viability, T/C [31]: 0.11%
viability, T/C [32]: 0.13%
viability, T/C [33]: 0.73%
viability, T/C [34]: 0.56%
viability, T/C [35]: 0.92%
viability, T/C [36]: 0.5%

CC(CO)NC(=O)c1cc(-c2ccc(Cl)cc2)nn(-c2cnn(C)c2)c1=O (stereo unspecified) + CN1CCN(c2cc(C(=O)Nc3cc4cc(-c5cnn(C)c5)ccc4cn3)ccn2)CC1
IC50 (second compound 0.0316 µM): > 10000 nM
IC50 (second compound 0.1 µM): > 10000 nM
IC50 (second compound 0.316 µM): < 31.6 nM
IC50 (second compound 1 µM): < 31.6 nM
IC50 (second compound 3.16 µM): < 31.6 nM
IC50 (second compound 10 µM): < 31.6 nM
viability, T/C [1]: 97.5%
viability, T/C [2]: 97.8%
viability, T/C [3]: 95.6%
viability, T/C [4]: 105%
viability, T/C [5]: 96.5%
viability, T/C [6]: 68.4%
viability, T/C [7]: 76.9%
viability, T/C [8]: 88.5%
viability, T/C [9]: 80.6%
viability, T/C [10]: 86%
viability, T/C [11]: 82%
viability, T/C [12]: 54.2%
viability, T/C [13]: 1.94%
viability, T/C [14]: 2.45%
viability, T/C [15]: 2.27%
viability, T/C [16]: 2.92%
viability, T/C [17]: 2.59%
viability, T/C [18]: 4.2%
viability, T/C [19]: 0.11%
viability, T/C [20]: 0.93%
viability, T/C [21]: 2.47%
viability, T/C [22]: 0.11%
viability, T/C [23]: 0.09%
viability, T/C [24]: 0.42%
viability, T/C [25]: 0.17%
viability, T/C [26]: 0.17%
viability, T/C [27]: 0.24%
viability, T/C [28]: 0.18%
viability, T/C [29]: 0.16%
viability, T/C [30]: 0.13%
viability, T/C [31]: 1.96%
viability, T/C [32]: 0.22%
viability, T/C [33]: 0.37%
viability, T/C [34]: 2.01%
viability, T/C [35]: 0.24%
viability, T/C [36]: 0.36%

COc1c(OCCCN2CCOCC2)ccc2c3n(c(=NC(=O)c4cnc(N)nc4)nc12)CCN3 + CN1CCN(c2cc(C(=O)Nc3cc4cc(-c5cnn(C)c5)ccc4cn3)ccn2)CC1
IC50 (second compound 0.0316 µM): 95.1 nM
IC50 (second compound 0.1 µM): 21.7 nM
IC50 (second compound 0.316 µM): < 3.16 nM
IC50 (second compound 1 µM): < 3.16 nM
IC50 (second compound 3.16 µM): < 3.16 nM
IC50 (second compound 10 µM): < 3.16 nM
viability, T/C (second compound 0.0316 µM, first compound 0.00316 µM): 83.4%
viability, T/C (second compound 0.0316 µM, first compound 0.01 µM): 84.3%
viability, T/C [1]: 77.2%
viability, T/C [2]: 46.6%
viability, T/C [3]: 21.7%
viability, T/C [4]: 6.87%
viability, T/C (second compound 0.1 µM, first compound 0.00316 µM): 65.2%
viability, T/C (second compound 0.1 µM, first compound 0.01 µM): 63.8%
viability, T/C [7]: 43.4%
viability, T/C [8]: 18.1%
viability, T/C [9]: 9.33%
viability, T/C [10]: 4.74%
viability, T/C (second compound 0.316 µM, first compound 0.00316 µM): 1.28%
viability, T/C (second compound 0.316 µM, first compound 0.01 µM): 0.96%
viability, T/C [13]: 1.21%
viability, T/C [14]: 1.68%
viability, T/C [15]: 0.41%
viability, T/C [16]: 0.17%
viability, T/C (second compound 1 µM, first compound 0.00316 µM): 0.15%
viability, T/C (second compound 1 µM, first compound 0.01 µM): 0.11%
viability, T/C [19]: 0.55%
viability, T/C [20]: 0.06%
viability, T/C [21]: 1.84%
viability, T/C [22]: 1.26%
viability, T/C (second compound 3.16 µM, first compound 0.00316 µM): 0.21%
viability, T/C (second compound 3.16 µM, first compound 0.01 µM): 0.99%
viability, T/C [25]: 2.18%
viability, T/C [26]: 0.08%
viability, T/C [27]: 1.65%
viability, T/C [28]: 0.11%
viability, T/C (second compound 10 µM, first compound 0.00316 µM): 0.1%
viability, T/C (second compound 10 µM, first compound 0.01 µM): 1.86%
viability, T/C [31]: 0.15%
viability, T/C [32]: 0.42%
viability, T/C [33]: 0.43%
viability, T/C [34]: 0.62%
